Where two headings read alike, the source gives them in different places.
What was measured:
A549 = assay: SRB colorimetric cytotoxicity assay, A549; assay type: cell-based; conditions: Homo sapiens, read-out: GI50 (M) A549
Source text: (§1) The aim of this assay is to evaluate the in vitro cytostatic (ability to delay or arrest tumor cell growth) or cytotoxic (ability to kill tumor cells) activity of the samples being tested.
(§2) A colorimetric assay, using sulforhodamine B (SRB) reaction has been adapted to provide a quantitative measurement of cell growth and viability (using the technique developed by Skehan et al., J. Natl. Cancer Inst. 1990 and following the protocol detailed in V. Vichai and K. Kirtikara (2006) Nature Protoc. 1, 1112-1116.)
(§3) This form of assay employs 96-well cell culture microplates. All the cell lines used in this study were obtained from the American Type Culture Collection (ATCC), unless otherwise indicated, and derive from different types of human cancer.
(§4) Cells were maintained in Dulbecco's Modified Eagle Medium (DMEM) (for A549, HT-29 and MDA-MB-231) or RPMI (for PSN-1) supplemented with 10% Fetal Bovine Serum (FBS), 2 mM L-glutamine, 100 U/mL penicillin and 100 U/mL streptomycin at 37° C., 5% CO2 and 98% humidity. For the experiments, cells were harvested from subconfluent cultures using trypsinization and resuspended in fresh medium before counting and plating.
(§5) Cells were seeded in 96 well microtiter plates, at 5×10^3 cells per well in aliquots of 150 μL, and allowed to attach to the plate surface for 18 hours (overnight) in drug free medium. After that, one control (untreated) plate of each cell line was fixed (as described below) and used for time zero reference value. Culture plates were then treated with test compounds (50 μL aliquots of 4× concentrated compound stock solutions made in complete culture medium) using ten serial dilutions (concentrations ranging from […]) and triplicate cultures (final concentration of DMSO being 1%). After 72 hours treatment, the antitumor effect was measured by using the SRB methodology: Briefly, cells were washed twice with PBS, fixed for 15 min in 1% glutaraldehyde solution at room temperature, rinsed twice in PBS, and stained in 0.4% SRB solution for 30 min at room temperature. Cells were then rinsed several times with 1% acetic acid solution and air-dried at room temperature. SRB was then extracted in 10 mM trizma base solution and the absorbance measured in an automated spectrophotometric plate reader at 490 nm. Effects on cell growth and survival were estimated by applying the NCI algorithm (Boyd M R and Paull K D. Drug Dev. Res. 1995, 34, 91-104).
(§6) Using the mean±SD of triplicates, a dose-response curve was automatically generated using nonlinear regression analysis to a 4-parameter logistic curve. Three reference parameters were calculated (NCI algorithm) by automatic interpolation: GI50=compound concentration that produces […] cell growth inhibition, as compared to control cultures.

HT29 = assay: SRB colorimetric cytotoxicity assay, HT29; assay type: cell-based; conditions: Homo sapiens, read-out: GI50 (M) HT29
Source text: as §1, §2, §3, §4, §5, §6

PSN-1 = assay: SRB colorimetric cytotoxicity assay, PSN-1; assay type: cell-based; conditions: Homo sapiens, read-out: GI50 (M) PSN-1
Source text: as §1, §2, §3, §4, §5, §6

[1] = MTD (Maximum Tolerated Dose) determination; conditions: Athymic Nude-Fox1 nu/nu, mouse, in vivo; iv, single dose; female athymic nude mice
Protocol: Female Athymic Nude-Fox1 nu/nu mice (Envigo) were utilized for all experiments. Animals (N=10/cage) were housed in individually ventilated cages (Sealsafe Plus®, Techniplast S.P.A.), on a 12-hour light-dark cycle at 21-23° C. and 40-60% humidity. Mice were allowed free access to irradiated standard rodent diet (Tecklad 2914C) and sterilized water. Animals were acclimated for five days prior to being individually tattoo-identified. Animal protocols were reviewed and approved according to the regional Institutional Animal Care and Use Committees.
Mice were randomly allocated into experimental groups and intravenously administered, once for the MTD (Maximum Tolerated Dose) determination or one administration a week during three consecutive weeks, for the MTMD (Maximum Tolerated Multiple Dose) determination study. The animals were administered with white formulation or with compound dissolved in the experimental formulation at different concentrations. The volume administered was always 10 mL/kg. Once administered, animals were monitored for clinical signs of systemic toxicity, changes in body weight and mortality up to 14 days after the administration.

Structure (SMILES)	GI50 (A549; A549, 72 h)	GI50 (HT29; HT-29, 72 h)	GI50 (PSN-1; PSN1, 72 h)	MTD at 14 days [1]	GI50 (A549; A549, 72 hours treatment, SRB)	GI50 (HT29; HT-29, 72 hours treatment, SRB)	GI50 (PSN-1; PSN1, 72 hours treatment, SRB)	MTD [1]
COC1=CC[C@@H]([C@@H](C)/C=C(C)/C=C\C=C/C(=O)N[C@H](C(=O)N/C=C\C[C@H](C/C=C(\C)F)OC(N)=O)C(C)(C)C)OC1=O [Compound 2]	4.55e-11 M	1.31e-11 M	2.27e-11 M	2 mg/kg				
COC1=CC[C@@H]([C@@H](C)/C=C(C)/C=C\C=C/C(=O)N[C@H](C(=O)N/C=C\C[C@H](CC=C(C)C)OC(N)=O)C(C)(C)C)OC1=O [Compound 3]	5.98e-11 M	2.22e-11 M	1.43e-10 M	1 mg/kg				
C/C=C\C[C@@H](C/C=C\NC(=O)[C@@H](NC(=O)\C=C/C=C\C(C)=C\[C@H](C)[C@@H]1CC=C(OC)C(=O)O1)C(C)(C)C)OC(N)=O [PM060184, reference compound]					1.71e-10 M	8.3e-11 M	1.87e-10 M	16 mg/kg

— patent US20250243174A1, “ANTITUMORAL COMPOUNDS” (PHARMA MAR, S.A., priority 2021, published 2025)
